Source: patent publication US20170189357A1, “METHODS OF LIMITING MORBIDITY IN HEMOGLOBINOPATHIES” (DUKE UNIVERSITY, priority 2014, published 2017)
Like-named read-outs stand apart in the source and are kept apart here.

How the values were obtained:
sickle RBCs [1] = settings: 20 nM epinephrine, non-activated HUVECs
ERK [2] = settings: 20 nM epinephrine; n=19; p<0.05
ERK [3] = test: ERK phosphorylation in sickle RBCs exposed to hypoxia (Western blot of membrane ghosts); format: cell-based, human; settings: hypoxia 8% oxygen 2 hours
SSRBCs = test: SSRBC adhesion to HUVECs after PTx/CTx treatment, with or without tyrosine kinase inhibitors, intermittent flow; format: cell-based, human; settings: 1 μM inhibitor before 1 μg/ml PTx; for inhibition of the effect of PTx on sickle cell adhesion: shear stress 2 dynes/cm^2, p<0.01
Method: FIG. 9 is a set of figures showing that activation of Gas protein increased SSRBC adhesion to endothelial cells via activation of tyrosine kinases. FIG. 9A is a schematic depiction of GPCR pathways along with inhibitors and stimuli of the kinases of these pathways regulating SSRBC adhesion. FIGS. 9B-E are a set of graphs showing adherence of RBCs which were sham-treated, or treated with Pertussis toxin (PTx) (0.5, 1 or 2 μg/ml) (FIGS. 9B-D), 1 μg/ml Cholera toxin (CTx) (FIG. 9B) or phenylarsine oxide (0.1, 10, 20, 40 and 80 μM) (FIG. 9E), or pretreated with 1 μM PP1, 1 μM PP2 or 1 μM piceatannol prior to treatment with 1 μg/ml PTx (FIG. 9C and FIG. 9D). Treated RBCs were tested for adhesion to HUVECs in intermittent flow conditions at different shear stresses. Data are presented as % adherent RBCs (FIG. 9B) or SSRBCs (FIG. 9C-FIG. 9E) at a shear stress of 2 dynes/cm^2. Each graph is representative of 3 different experiments. Error bars show standard error of the mean (SEM). *: p<0.001 compared to sham-treated RBCs; **: p<0.01 compared to PTx-treated RBCs.
Vaso-occlusion is associated with various types of physiological stress. β2-adrenergic receptors (β2AR) stimulation with catacholamines employs both Gas and &Gai (or Ga0) pathways. We first determined the Ga, Gas and/or Gai, in sickle cell regulating tyrosine kinase activation-mediated sickle cell adhesion to endothelial cells (FIG. 9A). Sickle cells adhered to some degree to endothelial cells under intermittent flow conditions at a shear stress of 2 dynes/cm^2. (FIGS. 9B-D). […] The selective Src-family kinase inhibitors, PP1 and PP2 (FIG. 9A), and the non-receptor tyrosine kinase p72^Syk inhibitor, piceatannol (FIG. 9A), inhibited the effect of PTx on sickle cell adhesion by 67±2.7%, 64±1.7% and 60 ±5.5%, respectively (p<0.01) (FIGS. 9C and 9D).

p60-c-Src [4] = test: p60-c-Src phosphorylation in SSRBCs (Western blot of membrane ghosts); format: cell-based, human; settings: 1 μM inhibitor before 1 μg/ml PTx; p<0.0001
Excerpt: (§1) FIG. 10 is a set of figures showing inhibition of Gai protein increased phosphorylation of p72^syk and p60-c-Src tyrosine kinases in intact SSRBCs. FIG. 10A-FIG. 10G show the kinase expression results for twenty μg of membrane protein ghosts (SSRBC ghosts, n=7, SS1, SS2, SS3, SS4, SS5, SS6 and SS7; and normal RBC ghosts, n=7, AA1, AA2, AA3AA4, AA5, AA6 and AA7) were used per lane. FIG. 10A-FIG. 10D show Western blots and corresponding graphs showing the kinase expression results of protein ghosts which were stained with antibodies against phosphorylated p60-c-Src [p-p60-c-Src (SS1, SS2, SS3, SS4; and AA1, AA2, AA3, AA4)] and p60-c-Src [p60-c-Src (SS1, SS2, SS3, SS4, SS5, SS6, SS7, and AA1, AA2, AA3, AA4, AA5, AA6, AA7)]; and phosphorylated p72^syk [p-Syk (SS1, SS2, SS3, SS4; and AA1, AA2, AA3, AA4)] and p72^syk[Syk (SS1, SS2, SS3, SS4, SS5, SS6, SS7; and AA1, AA2, AA3, AA4, AA5, AA6, AA7)]. Antibody against glycophorin C was used as a loading control. FIG. 10C and FIG. 10D show the quantitative analysis of the data presented as relative kinase expression [SSRBCs (n=7) and AARBCs (n=7)], and as relative kinase phosphorylation [SSRBCs (n=4) and AARBCs (n=4)]. […] Quantitative analysis of the data (normalized according to total kinase expression) is presented as fold change in p60-c-Src phosphorylation (FIG. 10E and FIG. 10F) and Syk phosphorylation (FIG. 10G). […]

p60-c-Src [5] = test: p60-c-Src phosphorylation in normal RBCs (Western blot); format: cell-based, human; settings: 1 μM PP1; normal RBCs by context (FIG. 10F)
Excerpt: as §1

sickle cells = test: Hypoxia-induced sickle cell adhesion to microvascular endothelial cells, intermittent flow; format: cell-based, human; settings: hypoxia 8% O2 2 h, then RDEA119; shear stress 1-2 dynes/cm^2
Method: Sickle cells were exposed to room air (sham) or hypoxia (H) (8% O2) for 2 h followed by treatment with RDEA119 MEK inhibitor, then washed. SSRBC adhesion to microvascular endothelial cells was tested in intermittent flow condition assays, and results are presented as % adherent SSRBCs at a shear stress of 1-2 dynes/cm^2. […] Error bars show SEM of 3 different experiments.
One of the major pathophysiologic processes in SCD is vasoocclusion in response to hypoxia.

human sickle RBCs = test: Human sickle RBC adhesion and vaso-occlusion in TNFα-pretreated nude mice, intravital microscopy; settings: sickle RBCs treated ex vivo
Method: FIG. 5 is a set of photographs and graphs showing that ERK in sickle RBCs promotes vaso-occlusion in nude mice in vivo. FIG. 5A, FIG. 5B and FIG. 5C are a set of photographs showing nude mice implanted with dorsal skin-fold window chambers after injection with murine TNFα. Four hours later, intravital microscopic observations of post-capillary venules and arterioles using 10× and 20× magnifications were conducted through the window chamber immediately after infusion of fluorescently labeled human sickle RBCs (n=5) that were sham-treated (FIG. 5A; panels 1, 2, 3 and 4) or treated with the MEK inhibitor RDEA119 (FIG. 5B panels 1, 2 and 3), or human normal (AA) RBCs (n=3) sham-treated (FIG. 5C; two panels on the left) or RDEA119-treated (FIG. 5C; 2 panels on the right). Vessels without adherent cells appear gray, due to the rapidly moving of fluorescence labeled RBCs. Adhesion of human sickle RBCs in enflamed vessels and vaso-occlusion are indicated with arrows and appear as white spots in the vessels. […] Scale bar=50 μm. FIG. 5D is a graph showing quantification of the fluorescence intensity of video frames of vessel and arteriole segments used to quantify adhesion in venules and arterioles of animals occupied by sickle RBCs (n=5 for each treatment). Adhesion of fluorescently labeled sham-treated sickle RBCs (sham-treated SS) and RDEA119-treated sickle RBCs (RDEA119-treated SS) in all vessels and arterioles recorded presented as fluorescence intensity [fluorescence unit (FU)] of adherent sickle RBCs. FIG. 5E-FIG. 5G are graphs showing the values of at least 180 segments of vessels and arterioles analyzed and averaged among groups of animals (n=5) to represent percentage of vessels occupied by adherent sickle RBCs (FIG. 5E); percentage of vessels with normal blood flow, slow blood flow and no blood flow (FIG. 5F), and percentage of normal flowing vessels (FIG. 5G). Error bars show SEM of 5 different experiments for each treatment condition, *: p<0.001 compared to sham-treated sickle RBCs regardless of the vessel diameter within the ranges specified for D, E and G. […]

human normal (AA) RBCs = test: Normal human RBC adhesion in TNFα-pretreated nude mice, intravital microscopy; settings: normal human RBCs treated ex vivo
Excerpt: FIG. 5 is a set of photographs and graphs showing that ERK in sickle RBCs promotes vaso-occlusion in nude mice in vivo. FIG. 5A, FIG. 5B and FIG. 5C are a set of photographs showing nude mice implanted with dorsal skin-fold window chambers after injection with murine TNFα. […] Vessels without adherent cells appear gray, due to the rapidly moving of fluorescence labeled RBCs. […] FIG. 5D is a graph showing quantification of the fluorescence intensity of video frames of vessel and arteriole segments used to quantify adhesion in venules and arterioles of animals occupied by sickle RBCs (n=5 for each treatment). Adhesion of fluorescently labeled sham-treated sickle RBCs (sham-treated SS) and RDEA119-treated sickle RBCs (RDEA119-treated SS) in all vessels and arterioles recorded presented as fluorescence intensity [fluorescence unit (FU)] of adherent sickle RBCs. FIG. 5E-FIG. 5G are graphs showing the values of at least 180 segments of vessels and arterioles analyzed and averaged among groups of animals (n=5) to represent percentage of vessels occupied by adherent sickle RBCs (FIG. 5E); percentage of vessels with normal blood flow, slow blood flow and no blood flow (FIG. 5F), and percentage of normal flowing vessels (FIG. 5G). […]

leukocytes = test: Leukocyte adhesion in transgenic sickle cell mice after TNFα challenge; settings: 0.025, 0.05 and 0.1 mg/kg; versus vehicle
murine sickle RBCs = settings: for inhibition of murine sickle RBC adhesion: versus vehicle, p<0.0001
sickle RBCs [6] = test: Sickle RBC adhesion to non-activated and TNFα-activated HUVECs, intermittent flow; format: cell-based, human; settings: U0126 10 μM; TNFα-activated HUVECs; shear stress 2 dynes/cm^2; p<0.05
neutrophils (PMNs) = settings: sickle RBCs treated with 10 μM U0126, then epinephrine; co-incubated with PMNs
human sickle red cell = settings: systemic administration; cited from earlier work

## CNC[C@H](O)c1ccc(O)c(O)c1 [Epinephrine, epinephrine]
Sickle RBCs [1]; shear stress 2 dynes/cm^2
  sickle cell adhesion to normal endothelial cells: increased sickle cell adhesion to normal endothelial cells
ERK [2]
  phosphorylation of sickle cell ERK: increased phosphorylation of sickle cell ERK

## O=C1Nc2ccc(I)cc2/C1=C/c1cc(Br)c(O)c(Br)c1 [GW5074]
ERK [3]
  effect of hypoxia on ERK phosphorylation: decreased the effect of hypoxia on ERK phosphorylation

## Cc1ccc(-c2nn(C(C)(C)C)c3ncnc(N)c23)cc1 [PP1]
SSRBCs
  inhibition of the effect of PTx on sickle cell adhesion: 67±2.7%
p60-c-Src [4]
  PTx-increased p60-c-Src phosphorylation in sickle cells: to levels below baseline phosphorylation
p60-c-Src [5]
  phosphorylation of p60-c-Src, inhibitor effect: inhibited

## CC(C)(C)n1nc(-c2ccc(Cl)cc2)c2c(N)ncnc21 [PP2]
SSRBCs
  inhibition of the effect of PTx on sickle cell adhesion: 64±1.7%
p60-c-Src [4]
  PTx-increased p60-c-Src phosphorylation in sickle cells: to levels below baseline phosphorylation

## COc1cc(F)c(F)c(Nc2ccc(I)cc2F)c1NS(=O)(=O)C1(C[C@H](O)CO)CC1 [RDEA119]
Sickle cells
  effect of hypoxia on sickle cell adhesion to endothelial cells: almost completely inhibited
Human sickle RBCs; nude mice pretreated with TNFα
  vaso-occlusion by treated sickle cells: no visible vase-occlusion
Human sickle RBCs; nude mice pretreated with TNFα, n=5, p<0.0001
  reduction of SSRBC adhesion compared to sham-treated SSRBCs: 88%
Human sickle RBCs; nude mice, versus 50±5.5% with sham-treated cells
  vessels and arterioles with normal blood flow: 86±3.3%
Human normal (AA) RBCs
  adherence of normal human RBCs in enflamed vessels: no real adherence
leukocytes
  time to abrogation of leukocyte adhesion after administration: ≤ 10 min
Murine sickle RBCs; 0.025 mg/kg infused 120 min after TNFα
  inhibition of murine sickle RBC adhesion: 76%
Murine sickle RBCs; 0.05 mg/kg infused 120 min after TNFα
  inhibition of murine sickle RBC adhesion: 99%
Murine sickle RBCs; 0.1 mg/kg infused 120 min after TNFα
  inhibition of murine sickle RBC adhesion: 98%
Murine sickle RBCs; lowest dose 0.025 mg/kg, effect sustained over time
  time to reversal of murine sickle RBC adhesion after drug administration: ≤ 10 min
Murine sickle RBCs; p<0.05 for each RDEA119 dose (0.025, 0.05, 0.1 mg/kg)
  vessels with restored blood flow: 57%

## N#CC(=C(/N)Sc1ccccc1N)/C(C#N)=C(\N)Sc1ccccc1N [U0126]
Sickle RBCs [6]
  sickle cell adhesion to TNFα-activated endothelial cells: reduced sickle cell adhesion
ERK [3]
  effect of hypoxia on ERK phosphorylation: decreased the effect of hypoxia on ERK phosphorylation
Sickle RBCs [1]; U0126 10 μM
  epinephrine-activated sickle cell adhesion: inhibited activated sickle cell adhesion
Neutrophils (PMNs)
  sickle cell-induced PMN adhesion to endothelial cells: decreased sickle cell-induced PMN adhesion

## CC(C)=CCCC(C)=CCCC(C)=CCSc1ccccc1C(=O)O [farnesylthiosalicylic acid]
ERK [3]
  effect of hypoxia on ERK phosphorylation: decreased the effect of hypoxia on ERK phosphorylation

## Oc1cc(O)cc(/C=C/c2ccc(O)c(O)c2)c1 [piceatannol]
SSRBCs; Homo sapiens, HUVEC, shear stress 2 dynes/cm^2, p<0.01, read-out: inhibition of the effect of PTx on sickle cell adhesion
  inhibition at 1 µM: 60 ± 5.5%

## CC(C)NCC(O)COc1cccc2ccccc12 (centres unmarked) [propranolol]
Human sickle red cell
  human sickle red cell adhesion and associated vasoocclusion in mice: inhibited human sickle red cell adhesion
